Assay results reported in ChEMBL document CHEMBL1130907, “The novel cyclopropapyrroloindole(CPI) bisalkylators bearing 3,3'-(1,4-phenylene)diacryloyl group as a linker” (Bioorg Med Chem Lett, 1998).
In brackets after ≈: the same amount, converted by molar mass.

Tests used:
Mus musculus = experiment: In vivo antitumor activity against colon 26 murine adenocarcinoma in male CDF1 mice and was expressed as 50% tumor growth inhibition.; type: functional
[1] = Ratio of MTD, maximum dose with in 10% body weight loss (ug/Kg) to that of TGI50 was reported; type: functional
HeLa [2] = experiment: In vitro cytotoxicity against HeLaS3 human uterine cervix carcinoma; type: functional, cell-based
HeLa [3] = experiment: In vitro cytotoxicity against HeLaS3 human uterine cervix carcinoma.; type: functional, cell-based
[4] = Homo sapiens, HeLa, read-out: IC50

O=C(/C=C/c1ccc(/C=C/C(=O)N2C[C@H](CCl)c3c2cc(O)c2[nH]c4ccccc4c32)cc1)N1C[C@@H](CCl)c2c1cc(O)c1[nH]c3ccccc3c21
TGI50 (Mus musculus): 3.8 µg/kg
Ratio [1]: 8.2
IC50 (HeLa [2]; [4]): 0.072 ng/mL (≈ 0.0989 nM)

Cc1c[nH]c2c(O)cc3c(c12)[C@H](CCl)CN3C(=O)/C=C/c1ccc(/C=C/C(=O)N2C[C@H](CCl)c3c2cc(O)c2[nH]cc(C)c32)cc1
TGI50 (Mus musculus): 1.41 µg/kg
Ratio [1]: 5.5
IC50 (HeLa [2]; hela): 0.0013 ng/mL (≈ 0.00198 nM)

COC(=O)c1c(C)[nH]c2c(O)cc3c(c12)[C@H](CCl)CN3C(=O)/C=C/c1ccc(/C=C/C(=O)N2C[C@H](CCl)c3c2cc(O)c2[nH]c(C)c(C(=O)OC)c32)cc1
TGI50 (Mus musculus): 0.891 µg/kg
IC50 (HeLa [3]): 0.00046 ng/mL (≈ 0.000596 nM)
Ratio [1]: 8.8

Cc1c[nH]c2c(O)cc3c(c12)[C@H](CCl)CN3C(=O)c1cc2cc(NC(=O)Nc3ccc4[nH]c(C(=O)N5C[C@@H](CCl)c6c5cc(O)c5[nH]cc(C)c65)cc4c3)ccc2[nH]1 [BIZELESIN]
TGI50 (Mus musculus): 3.72 µg/kg
Ratio [1]: 8.4

COC(=O)c1c(C(F)(F)F)[nH]c2c(O)cc3c(c12)[C@H](CCl)CN3C(=O)c1cc2cc(-c3ccc4[nH]c(C(=O)N5C[C@@H](CCl)c6c5cc(O)c5[nH]c(C(F)(F)F)c(C(=O)OC)c65)cc4c3)ccc2[nH]1
TGI50 (Mus musculus): 0.3 µg/kg
Ratio [1]: 3.3
IC50 (HeLa [2]; hela): 0.0049 ng/mL (≈ 0.00499 nM)

COC(=O)c1c(C(F)(F)F)[nH]c2c(O)cc3c(c12)[C@H](CCl)CN3C(=O)/C=C/c1ccc(/C=C/C(=O)N2C[C@H](CCl)c3c2cc(O)c2[nH]c(C(F)(F)F)c(C(=O)OC)c32)cc1
TGI50 (Mus musculus): 0.254 µg/kg
Ratio [1]: 30.7
IC50 (HeLa [2]; hela): 0.0027 ng/mL (≈ 0.00307 nM)

COC(=O)c1cc2c3c(cc(O)c2[nH]1)N(C(=O)/C=C/c1ccc(/C=C/C(=O)N2C[C@H](CCl)c4c2cc(O)c2[nH]c(C(=O)OC)cc42)cc1)C[C@H]3CCl
TGI50 (Mus musculus): 100 µg/kg
IC50 (HeLa [2]; [4]): 0.023 ng/mL (≈ 0.0309 nM)

COC(=O)c1c[nH]c2c(O)cc3c(c12)[C@H](CCl)CN3C(=O)/C=C/c1ccc(/C=C/C(=O)N2C[C@H](CCl)c3c2cc(O)c2[nH]cc(C(=O)OC)c32)cc1
TGI50 (Mus musculus): 0.757 µg/kg
IC50 (HeLa [3]): 0.00035 ng/mL (≈ 0.000471 nM)
Ratio [1]: 10.3
